Measured values as given in patent US4551547A, “Biocidal 2-aryl-1, 3-cyclopentanedione enol ester compounds” (Union Carbide Corporation, priority 1983, dated 1985).
In brackets after ≈: the same amount, converted by molar mass.

Tests used:
[1] = system: Red root pigweed (Amaranthus); experiment: Preliminary herbicide seed germination test (pre-emergent), red root pigweed; format: in vivo, Amaranthus retroflexus; design: key: 5: no seedling emerged; 4: few seedlings emerged and/or very severe stunting; 3: moderate reduction in stand and/or moderate stunting.; 2: very slight reduction in stand and/or slight stunting; 1: no injury, seedlings appear no different with respect to stand or growth than untreated controls; conditions: ten to twelve days after application
Experimental: (§1) Suspensions of the test compounds were prepared by dissolving one gram of compound in 50 milliliters of acetone in which had been dissolved 0.1 gram (10 percent of the weight of compound) of an alkylphenoxyethanol sufactant, as an emulsifying or dispersing agent. The resulting solution was mixed into 160 milliliters of water to give roughly 200 milliliters of a suspension containing the compound in finely divided form. The thus prepared stock suspension contained 0.5 percent by weight of compound. The test concentrations employed in the tests described below were obtained by diluting the stock suspension with water. The test procedures were as follows:
(§2) The following seeds were used in this test:
Red root pigweed--Amaranthus retroflexus
(§3) Two […] mixtures were prepared as follows:
(§4) Each of the above mixtures was rolled separately in 5 gallon containers for approximately one-half hour on ball mill to insure uniform mixing of seeds and soil. For each compound four 3-inch pots were filled with soil to within 11/2 inches of top of pots. To two of these pots were added 70 cc. of Mixture I. To the remaining 2 pots were added 70 cc. of Mixture II. The seed-soil mixture was tamped firmly, and the pots were removed to the greenhouse and watered lightly. About 2 hours after planting, 25 milliliters of the test formulation were added to one pot containing Mixture I and one pot containing Mixture II. An equal volume of a water solution containing acetone and an emulsifier in the same concentration as the herbicidal mixture but without the candidate herbicide was also added to each of the soil-seed mixtures. These pots are used as check or control units. The test compounds were formulated by diluting the stock suspension with water to obtain the desired concentration of the compound in parts per million of the final formulation. Each compound was tested at the same concentration. […] Ratings were made according to the following designations: […]

Tomato = experiment: Post-emergent herbicidal test, tomato; format: in vivo; design: key: 1: no perceptible injury; 2: intermediate degrees of injury; 3: intermediate degrees of injury; 4: intermediate degrees of injury; 5: the plant was dead; conditions: 2500 parts per million, after ten days; for Post Emergent Herbicidal, Tomato: Table III
Experimental: as §1
(§5) Experiments were also conducted to determine the phytotoxicity of representative compositions with respect to healthy fresh plants. Solutions of the compounds were prepared as described above to provide a concentration of 2500 parts per million of the test compound. The test plants were sprayed in accordance with the procedure described above for the Mite Foliage Spray Test so as to deliver approximately 100 milliliters of test solutions to the leaves of each plant tested. The sprayed plants and controls were set aside for approximately one hour to allow the solutions to dry and were then placed in the greenhouse. After ten days the plants were visually inspected to determine the extent of foliage injury. A rating of 1 indicates no perceptible injury; 5 indicates the plant was dead and ratings of 2, 3 and 4 indicate intermediate degrees of injury based upon the number and extent to which leaves were injured.

Bean = experiment: Post-emergent herbicidal test, bean; format: in vivo; design: key: 1: no perceptible injury; 2: intermediate degrees of injury; 3: intermediate degrees of injury; 4: intermediate degrees of injury; 5: the plant was dead; conditions: 2500 parts per million, after ten days; for Post Emergent Herbicidal, Bean: Table III
Experimental: as §1, §5

Cotton = experiment: Post-emergent herbicidal test, cotton; format: in vivo; design: key: 1: no perceptible injury; 2: intermediate degrees of injury; 3: intermediate degrees of injury; 4: intermediate degrees of injury; 5: the plant was dead; conditions: 2500 parts per million, after ten days; for Post Emergent Herbicidal, Cotton: Table III
Experimental: as §1, §5

Perennial rye grass = experiment: Preliminary herbicide seed germination test (pre-emergent), perennial rye grass; format: in vivo, Solium perenne; design: key: 5: no seedling emerged; 4: few seedlings emerged and/or very severe stunting; 3: moderate reduction in stand and/or moderate stunting.; 2: very slight reduction in stand and/or slight stunting; 1: no injury, seedlings appear no different with respect to stand or growth than untreated controls; conditions: ten to twelve days after application
Experimental: as §1, §2
Perennial rye grass--Solium perenne
as §3, §4

Mustard = experiment: Preliminary herbicide seed germination test (pre-emergent), mustard; format: in vivo, Brassica pincea var. foliosa (Florida broadleaf); design: key: 5: no seedling emerged; 4: few seedlings emerged and/or very severe stunting; 3: moderate reduction in stand and/or moderate stunting.; 2: very slight reduction in stand and/or slight stunting; 1: no injury, seedlings appear no different with respect to stand or growth than untreated controls; conditions: ten to twelve days after application
Experimental: as §1, §2
Mustard--Brassica pincea var. foliosa (Florida broadleaf)
as §3, §4

[2] = system: egg of the two-spotted mite; experiment: Mite Ovicide Test (eggs); format: in vivo, Tetranychus urticae (Koch); design: key to Miticidal, Egg: A: Excellent Control; B: Partial Control; No Control; conditions: for LC50: Tetranychus urticae, Table III, ppm required for a 50 percent kill of eggs, read-out: Miticidal LD50, Egg
Experimental: Suspensions of the test compounds were prepared by dissolving one gram of compound in 50 milliliters of acetone in which had been dissolved 0.1 gram (10 percent of the weight of compound) of an alkylphenoxyethanol sufactant, as an emulsifying or dispersing agent. The resulting solution was mixed into 160 milliliters of water to give roughly 200 milliliters of a suspension containing the compound in finely divided form. The thus prepared stock suspension contained 0.5 percent by weight of compound. The test concentrations employed in the tests described below were obtained by diluting the stock suspension with water. The test procedures were as follows: The test organism was the egg of the two-spotted mite (Tetranychus urticae (Koch)), as obtained from adults reared on […] bean plants under controlled conditions of 80±5° F. and 50±5 percent relative humidity. Heavily infested leaves from a stock culture were placed on the primary leaves of two bean plants six to eight inches in height growing in a two-and-a-half inch clay pot. Females were allowed to oviposit for a period of 48 hours and the leaves of the infested plants were dipped in a solution containing 800 parts of tetraethyl pyrophosphate per million parts of water in order to destroy the reproductory forms and thus prevent further egg laying. […] The plants were allowed to dry thoroughly. The test compounds were formulated by diluting the stock suspension with water to give a suspension containing varying amounts of test compound per million parts of final formulation. The potted plants (one pot per compound) were placed on a revolving turntable and sprayed with 100-110 milliliters of test compound formulation by use of a DeVilbis spray gun set at 40 spig. air pressure. This application which lasted 30 seconds, was sufficient to wet the plants to run-off. As a control, 100-110 milliliters of a water solution containing acetone and emulsifier in the same concentrations as the test compound formulation, but containing no test compound, were also sprayed on plants infested with eggs. The sprayed plants were held at 80±5° F. and 50±5 percent relative humidity for four days, after which a microscopic examination was made of unhatched (dead) and hatched (living) eggs. In these tests the pesticidal activity of the compounds against mites and mite eggs was rated as follows: Tests were conducted in accordance with the procedures given at pages 17 to 21 supra. The results are expressed in the same manner as used in Table II, except with respect to miticidal activity. For mite adult and mite egg comparison purposes, results are given in parts per million (ppm) required for a 50 percent kill of mites or eggs, respectively.

SMILES	Pre-emergent Herbicidal, Amaranthus ([1]; Table II)	Post-emergent Herbicidal, Tomato (Tomato; Table II)	Post-emergent Herbicidal, Bean (Bean; Table II)	Post-emergent Herbicidal, Cotton (Cotton; Table II)	Pre-emergent Herbicidal, Rye (Perennial rye grass; Table II)	Pre-emergent Herbicidal, Mustard (Mustard; Table II)	Miticidal, Egg ([2]; Table II, unhatched eggs after four days)	Pre-emergent Herbicidal, Amaranthus ([1]; Table III)	Post Emergent Herbicidal, Tomato (Tomato)	Post Emergent Herbicidal, Bean (Bean)	Post Emergent Herbicidal, Cotton (Cotton)	Pre-emergent Herbicidal, Rye (Perennial rye grass; Table III)	Pre-emergent Herbicidal, Mustard (Mustard; Table III)	LC50 [2] [µg/mL]
CCCCCCCCCCCCCCCC(=O)OC1=C(c2cc(C)ccc2C)C(=O)C2CCCCC12 (stereo not drawn) [Compound 33]	1	1	1	1	1	1	A	–	–	–	–	–	–	–
CCCCCCCCCC(=O)OC1=C(c2ccccc2C)C(=O)C2CCCCC12 (stereo not drawn) [drawing 15]	–	–	–	–	–	–	–	3	1	2	3	5	3	1 (≈ 2.52 µM)
CCCCCCCCCCCCCCCC(=O)OC1=C(c2ccccc2C)C(=O)C2CCCCC12 (stereo not drawn) [drawing 17]	–	–	–	–	–	–	–	2	1	1	2	4	3	500 (≈ 1040 µM)
CCCCCCCCCC(=O)OC1=C(c2cc(C)ccc2C)C(=O)C2CCCCC12 (stereo not drawn) [drawing 19]	–	–	–	–	–	–	–	1	1	1	1	1	1	8 (≈ 19.5 µM)
CCCCC(CC)C(=O)OC1=C(c2ccccc2C)C(=O)CC1 (stereo not drawn) [drawing 21]	–	–	–	–	–	–	–	3	2	2	2	5	1	125 (≈ 398 µM)
CCCCC(CC)C(=O)OC1=C(c2ccccc2C)C(=O)C2CCCCC12 (stereo not drawn) [drawing 22]	–	–	–	–	–	–	–	2	1	1	2	3	1	5 (≈ 13.6 µM)
Cc1ccccc1C1=C(OC(=O)C(C)(C)C)C2CCCCC2C1=O (stereo not drawn) [drawing 24]	–	–	–	–	–	–	–	2	1	2	3	5	3	16 (≈ 49 µM)
CCCCCCCCCC(=O)OC1=C(c2ccccc2C)C(=O)c2ccccc21 [reference compound]	–	–	–	–	–	–	–	1	1	1	1	1	1	500 (≈ 1280 µM)
CCCCCCCCCCCCCCCC(=O)OC1=C(c2ccccc2C)C(=O)c2ccccc21 [reference compound]	–	–	–	–	–	–	–	1	1	1	1	1	1	60 (≈ 126 µM)
CCCCCCCCCC(=O)OC1=C(c2cc(C)ccc2C)C(=O)c2ccccc21 [reference compound]	–	–	–	–	–	–	–	1	1	1	1	1	1	500 (≈ 1240 µM)
CCCCC(CC)C(=O)OC1=C(c2ccccc2C)C(=O)c2ccccc21 (stereo not drawn) [reference compound]	–	–	–	–	–	–	–	1	1	1	1	1	1	60 (≈ 166 µM)
Cc1ccccc1C1=C(OC(=O)C(C)(C)C)c2ccccc2C1=O [reference compound]	–	–	–	–	–	–	–	2	1	1	1	2	2	270 (≈ 843 µM)
